Laboratory results taken from ChEMBL document CHEMBL2440076, “New triarylpyrazoles as broad-spectrum anticancer agents: design, synthesis, and biological evaluation” (Eur J Med Chem, 2013).

What was measured:
Assay type in all cases: functional
HCT-116 [1] = test: Growth inhibition of human HCT116 cells assessed as cell growth at 5X10'-9 M after 48 hrs by sulforhodamine B assay; conditions: HCT-116, 48 h, read-out: Activity
NCI-H522 [2] = test: Growth inhibition of human NCI-H522 cells assessed as cell growth at 5X10'-5 M after 48 hrs by sulforhodamine B assay; conditions: NCI-H522, 48 h, read-out: Activity
NCI-H322M [3] = test: Growth inhibition of human NCI-H322M cells assessed as cell growth at 5X10'-5 M after 48 hrs by sulforhodamine B assay; conditions: read-out: Activity
[4] = Growth inhibition of human Hs 578T cells assessed as cell growth at 5X10'-6 M after 48 hrs by sulforhodamine B assay; conditions: read-out: Activity
SN12C = test: Growth inhibition of human SN12C cells assessed as cell growth at 5X10'-6 M after 48 hrs by sulforhodamine B assay; conditions: read-out: Activity
A498 = test: Growth inhibition of human A498 cells assessed as cell growth at 5X10'-6 M after 48 hrs by sulforhodamine B assay; conditions: A498, 48 h, read-out: Activity
IGROV-1 = test: Growth inhibition of human IGROV1 cells assessed as cell growth at 5X10'-6 M after 48 hrs by sulforhodamine B assay; conditions: IGROV-1, 48 h, read-out: Activity
CCRF-CEM [5] = test: Growth inhibition of human CCRF-CEM cells assessed as cell growth at 5X10'-9 M after 48 hrs by sulforhodamine B assay; conditions: read-out: Activity
HCT-15 = test: Growth inhibition of human HCT15 cells assessed as cell growth at 5X10'-6 M after 48 hrs by sulforhodamine B assay; conditions: HCT-15, 48 h, read-out: Activity
NCI-H522 [6] = test: Growth inhibition of human NCI-H522 cells assessed as cell growth at 5X10'-6 M after 48 hrs by sulforhodamine B assay; conditions: NCI-H522, 48 h, read-out: Activity
NCI-H322M [7] = test: Growth inhibition of human NCI-H322M cells assessed as cell growth at 5X10'-6 M after 48 hrs by sulforhodamine B assay; conditions: read-out: Activity
HOP-62 = test: Growth inhibition of human HOP62 cells assessed as cell growth at 5X10'-6 M after 48 hrs by sulforhodamine B assay; conditions: HOP-62, 48 h, read-out: Activity
BT-549 = test: Growth inhibition of human BT549 cells assessed as cell growth at 5X10'-7 M after 48 hrs by sulforhodamine B assay; conditions: BT-549, 48 h, read-out: Activity
UO-31 [8] = test: Growth inhibition of human UO31 cells assessed as cell growth at 5X10'-7 M after 48 hrs by sulforhodamine B assay; conditions: UO-31, 48 h, read-out: Activity
PC-3 = test: Growth inhibition of human PC3 cells assessed as cell growth at 5X10'-7 M after 48 hrs by sulforhodamine B assay; conditions: PC-3, 48 h, read-out: Activity
786-0 = test: Growth inhibition of human 786-0 cells assessed as cell growth at 5X10'-7 M after 48 hrs by sulforhodamine B assay; conditions: 786-0, 48 h, read-out: Activity
[9] = Growth inhibition of human NCI-ADR-RES cells assessed as cell growth at 5X10'-7 M after 48 hrs by sulforhodamine B assay; conditions: read-out: Activity
SK-MEL-5 = test: Growth inhibition of human SK-MEL-5 cells assessed as cell growth at 5X10'-7 M after 48 hrs by sulforhodamine B assay; conditions: SK-MEL-5, 48 h, read-out: Activity
MDA-MB-435 = test: Growth inhibition of human MDA-MB-435 cells assessed as cell growth at 5X10'-7 M after 48 hrs by sulforhodamine B assay; conditions: MDA-MB-435, 48 h, read-out: Activity
[10] = Growth inhibition of human HCC2998 cells assessed as cell growth at 5X10'-7 M after 48 hrs by sulforhodamine B assay; conditions: HCC 2998, 48 h, read-out: Activity
HL-60(TB) [11] = test: Growth inhibition of human HL-60(TB) cells assessed as cell growth at 5X10'-7 M after 48 hrs by sulforhodamine B assay; conditions: HL-60, 48 h, read-out: Activity
CCRF-CEM [12] = test: Growth inhibition of human CCRF-CEM cells assessed as cell growth at 5X10'-7 M after 48 hrs by sulforhodamine B assay; conditions: read-out: Activity
UO-31 [13] = test: Growth inhibition of human UO31 cells assessed as cell growth at 5X10'-8 M after 48 hrs by sulforhodamine B assay; conditions: UO-31, 48 h, read-out: Activity
ACHN = test: Growth inhibition of human ACHN cells assessed as cell growth at 5X10'-8 M after 48 hrs by sulforhodamine B assay; conditions: read-out: Activity
OVCAR-8 = test: Growth inhibition of human OVCAR8 cells assessed as cell growth at 5X10'-8 M after 48 hrs by sulforhodamine B assay; conditions: OVCAR-8, 48 h, read-out: Activity
UACC-257 = test: Growth inhibition of human UACC257 cells assessed as cell growth at 5X10'-8 M after 48 hrs by sulforhodamine B assay; conditions: UACC-257, 48 h, read-out: Activity
SF-539 = test: Growth inhibition of human SF539 cells assessed as cell growth at 5X10'-8 M after 48 hrs by sulforhodamine B assay; conditions: SF-539, 48 h, read-out: Activity
TK-10 [14] = test: Growth inhibition of human TK10 cells assessed as cell growth at 5X10'-5 M after 48 hrs by sulforhodamine B assay; conditions: TK-10, 48 h, read-out: Activity
SK-MEL-28 = test: Growth inhibition of human SK-MEL-28 cells assessed as cell growth at 5X10'-5 M after 48 hrs by sulforhodamine B assay; conditions: SK-MEL-28, 48 h, read-out: Activity
HCT-116 [15] = test: Growth inhibition of human HCT116 cells assessed as cell growth at 5X10'-8 M after 48 hrs by sulforhodamine B assay; conditions: HCT-116, 48 h, read-out: Activity
NCI-H522 [16] = test: Growth inhibition of human NCI-H522 cells assessed as cell growth at 5X10'-8 M after 48 hrs by sulforhodamine B assay; conditions: NCI-H522, 48 h, read-out: Activity
A549 = test: Growth inhibition of human A549/ATCC cells assessed as cell growth at 5X10'-8 M after 48 hrs by sulforhodamine B assay; conditions: A549, 48 h, read-out: Activity
RPMI-8226 = test: Growth inhibition of human RPMI8226 cells assessed as cell growth at 5X10'-8 M after 48 hrs by sulforhodamine B assay; conditions: RPMI-8226, 48 h, read-out: Activity
HL-60(TB) [17] = test: Growth inhibition of human HL-60(TB) cells assessed as cell growth at 5X10'-8 M after 48 hrs by sulforhodamine B assay; conditions: HL-60, 48 h, read-out: Activity
TK-10 [18] = test: Growth inhibition of human TK10 cells assessed as cell growth at 5X10'-9 M after 48 hrs by sulforhodamine B assay; conditions: TK-10, 48 h, read-out: Activity
OVCAR-5 = test: Growth inhibition of human OVCAR5 cells assessed as cell growth at 5X10'-9 M after 48 hrs by sulforhodamine B assay; conditions: OVCAR-5, 48 h, read-out: Activity
UACC-62 = test: Growth inhibition of human UACC62 cells assessed as cell growth at 5X10'-9 M after 48 hrs by sulforhodamine B assay; conditions: UACC-62, 48 h, read-out: Activity

Compound: O=C(Nc1cccc(-n2cc(-c3ccncc3)c(-c3ccc(Cl)c(O)c3)n2)c1)c1ccc(N2CCOCC2)c(C(F)(F)F)c1
- growth at 0.005 µM (HCT-116 [1]): 99%
- growth at 50 µM (NCI-H522 [2]): -2%
- growth at 50 µM (NCI-H322M [3]): 56%
- growth at 5 µM [4]: 25%
- growth at 5 µM (SN12C): 70%
- growth at 5 µM (A498): 92%
- growth at 5 µM (IGROV-1): 68%
- growth at 0.005 µM (CCRF-CEM [5]): 98%
- growth at 5 µM (HCT-15): 18%
- growth at 5 µM (NCI-H522 [6]): 29%
- growth at 5 µM (NCI-H322M [7]): 76%
- growth at 5 µM (HOP-62): 67%
- growth at 0.5 µM (BT-549): 111%
- growth at 0.5 µM (UO-31 [8]): 112%
- growth at 0.5 µM (PC-3): 85%
- growth at 0.5 µM (786-0): 95%
- growth at 0.5 µM [9]: 96%
- growth at 0.5 µM (SK-MEL-5): 93%
- growth at 0.5 µM (MDA-MB-435): 85%
- growth at 0.5 µM [10]: 108%
- growth at 0.5 µM (HL-60(TB) [11]): 130%
- growth at 0.5 µM (CCRF-CEM [12]): 81%
- growth at 0.05 µM (UO-31 [13]): 88%
- growth at 0.05 µM (ACHN): 99%
- growth at 0.05 µM (OVCAR-8): 106%
- growth at 0.05 µM (UACC-257): 104%
- growth at 0.05 µM (SF-539): 93%
- growth at 50 µM (TK-10 [14]): 24%
- growth at 50 µM (SK-MEL-28): -54%
- growth at 0.05 µM (HCT-116 [15]): 97%
- growth at 0.05 µM (NCI-H522 [16]): 94%
- growth at 0.05 µM (A549): 101%
- growth at 0.05 µM (RPMI-8226): 99%
- growth at 0.05 µM (HL-60(TB) [17]): 117%
- growth at 0.005 µM (TK-10 [18]): 94%
- growth at 0.005 µM (OVCAR-5): 98%
- growth at 0.005 µM (UACC-62): 98%

Compound: O=C(Nc1cccc(-n2cc(-c3ccncc3)c(-c3ccc(Cl)c(O)c3)n2)c1)Nc1cc(C(F)(F)F)cc(C(F)(F)F)c1
- growth at 0.005 µM (HCT-116 [1]): 101%
- growth at 50 µM (NCI-H522 [2]): -82%
- growth at 50 µM (NCI-H322M [3]): -75%
- growth at 5 µM [4]: -8%
- growth at 5 µM (SN12C): 2%
- growth at 5 µM (A498): -4%
- growth at 5 µM (IGROV-1): -12%
- growth at 0.005 µM (CCRF-CEM [5]): 95%
- growth at 5 µM (HCT-15): -9%
- growth at 5 µM (NCI-H522 [6]): -28%
- growth at 5 µM (NCI-H322M [7]): 3%
- growth at 5 µM (HOP-62): -64%
- growth at 0.5 µM (BT-549): 109%
- growth at 0.5 µM (UO-31 [8]): 62%
- growth at 0.5 µM (PC-3): 41%
- growth at 0.5 µM (786-0): 93%
- growth at 0.5 µM [9]: 74%
- growth at 0.5 µM (SK-MEL-5): 62%
- growth at 0.5 µM (MDA-MB-435): 79%
- growth at 0.5 µM [10]: 92%
- growth at 0.5 µM (HL-60(TB) [11]): 93%
- growth at 0.5 µM (CCRF-CEM [12]): 62%
- growth at 0.05 µM (UO-31 [13]): 89%
- growth at 0.05 µM (ACHN): 96%
- growth at 0.05 µM (OVCAR-8): 93%
- growth at 0.05 µM (UACC-257): 89%
- growth at 0.05 µM (SF-539): 94%
- growth at 50 µM (TK-10 [14]): -95%
- growth at 50 µM (SK-MEL-28): -95%
- growth at 0.05 µM (HCT-116 [15]): 102%
- growth at 0.05 µM (NCI-H522 [16]): 102%
- growth at 0.05 µM (A549): 94%
- growth at 0.05 µM (RPMI-8226): 95%
- growth at 0.05 µM (HL-60(TB) [17]): 122%
- growth at 0.005 µM (TK-10 [18]): 107%
- growth at 0.005 µM (OVCAR-5): 96%
- growth at 0.005 µM (UACC-62): 95%

Compound: COc1cc(-c2nn(-c3cccc(NC(=O)c4cccc(C(F)(F)F)c4)c3)cc2-c2ccncc2)ccc1Cl
- growth at 0.005 µM (HCT-116 [1]): 99%
- growth at 50 µM (NCI-H522 [2]): -24%
- growth at 50 µM (NCI-H322M [3]): 46%
- growth at 5 µM [4]: 2%
- growth at 5 µM (SN12C): 41%
- growth at 5 µM (A498): -21%
- growth at 5 µM (IGROV-1): 22%
- growth at 0.005 µM (CCRF-CEM [5]): 100%
- growth at 5 µM (HCT-15): 15%
- growth at 5 µM (NCI-H522 [6]): -10%
- growth at 5 µM (NCI-H322M [7]): 52%
- growth at 5 µM (HOP-62): 47%
- growth at 0.5 µM (BT-549): 102%
- growth at 0.5 µM (UO-31 [8]): 62%
- growth at 0.5 µM (PC-3): 71%
- growth at 0.5 µM (786-0): 101%
- growth at 0.5 µM [9]: 86%
- growth at 0.5 µM (SK-MEL-5): 86%
- growth at 0.5 µM (MDA-MB-435): 69%
- growth at 0.5 µM [10]: 105%
- growth at 0.5 µM (HL-60(TB) [11]): 103%
- growth at 0.5 µM (CCRF-CEM [12]): 88%
- growth at 0.05 µM (UO-31 [13]): 75%
- growth at 0.05 µM (ACHN): 103%
- growth at 0.05 µM (OVCAR-8): 99%
- growth at 0.05 µM (UACC-257): 99%
- growth at 0.05 µM (SF-539): 94%
- growth at 50 µM (TK-10 [14]): 18%
- growth at 50 µM (SK-MEL-28): 38%
- growth at 0.05 µM (HCT-116 [15]): 96%
- growth at 0.05 µM (NCI-H522 [16]): 92%
- growth at 0.05 µM (A549): 98%
- growth at 0.05 µM (RPMI-8226): 98%
- growth at 0.05 µM (HL-60(TB) [17]): 92%
- growth at 0.005 µM (TK-10 [18]): 95%
- growth at 0.005 µM (OVCAR-5): 95%
- growth at 0.005 µM (UACC-62): 97%
